{
  "source": "patent US11931356B1",
  "about": "“Compositions and methods for treating human papilloma virus infections” (priority 2022, dated 2024)",
  "key": {"[1]": {"molecular_target": "HPV-16 E6 protein with Cys51 (Human papillomavirus type 16, UniProt P03126)", "sequence (P03126 8-158)": "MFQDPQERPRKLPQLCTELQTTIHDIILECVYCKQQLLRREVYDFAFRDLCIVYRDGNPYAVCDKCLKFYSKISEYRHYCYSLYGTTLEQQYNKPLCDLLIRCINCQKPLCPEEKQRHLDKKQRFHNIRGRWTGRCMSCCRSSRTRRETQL", "format": "binding", "details": "whole protein mass spectrum"}, "[2]": {"molecular_target": "C51S (cysteine 51 mutation to serine) HPV-16 E6 protein (Human papillomavirus type 16, UniProt P03126, C58S)", "sequence (P03126 8-158 C58S)": "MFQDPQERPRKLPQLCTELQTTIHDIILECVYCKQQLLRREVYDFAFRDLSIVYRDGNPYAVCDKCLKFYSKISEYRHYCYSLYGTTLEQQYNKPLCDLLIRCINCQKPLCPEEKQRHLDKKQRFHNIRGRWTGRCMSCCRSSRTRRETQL", "assay": "whole protein mass spectra of mutant C51S HPV-16 E6 protein upon exposure to compound", "format": "binding, human papilloma virus 16", "details": "whole protein mass spectrum; cysteine 51 replaced by serine"}},
  "data": [
    {"smiles": "C=CC(=O)N1CCN(c2nc(CCc3ccc(F)c(OC)c3)nc3sc4c(c23)CCCC4)CC1", "note": "[Compound 1]", "values": [
      {"measurement": "mass shift of the HPV-16 E6 protein upon exposure to compound (covalent bonding at Cys51)", "setting": "[1]", "value": "mass shift"},
      {"measurement": "mass shift of the C51S HPV-16 E6 protein upon exposure to compound", "setting": "[2]", "value": "lack of mass shift"}
    ]},
    {"smiles": "C=CC(=O)N1CCN(c2nc(CCc3ccc(O)c(F)c3)nc3sc4c(c23)CCCC4)CC1", "note": "[Compound 2]", "values": [
      {"measurement": "mass shift of the HPV-16 E6 protein upon exposure to compound (covalent bonding at Cys51)", "setting": "[1]", "value": "mass shift"},
      {"measurement": "mass shift of the C51S HPV-16 E6 protein upon exposure to compound", "setting": "[2]", "value": "lack of mass shift"}
    ]},
    {"smiles": "C=CC(=O)N1CCN(c2nc(CCc3ccc(F)c(O)c3)nc3sc4c(c23)CCCC4)CC1", "note": "[Compound 3]", "values": [
      {"measurement": "mass shift of the HPV-16 E6 protein upon exposure to compound (covalent bonding at Cys51)", "setting": "[1]", "value": "mass shift"},
      {"measurement": "mass shift of the C51S HPV-16 E6 protein upon exposure to compound", "setting": "[2]", "value": "lack of mass shift"}
    ]},
    {"smiles": "C=CC(=O)N1CCN(c2nc(CCc3cc(F)c(OC)c(F)c3)nc3sc4c(c23)CCCC4)CC1", "note": "[Compound 4]", "values": [
      {"measurement": "mass shift of the HPV-16 E6 protein upon exposure to compound (covalent bonding at Cys51)", "setting": "[1]", "value": "mass shift"},
      {"measurement": "mass shift of the C51S HPV-16 E6 protein upon exposure to compound", "setting": "[2]", "value": "lack of mass shift"}
    ]},
    {"smiles": "C=CC(=O)N1CCN(c2nc(CCc3cnc(OC)c(F)c3)nc3sc4c(c23)CCCC4)CC1", "note": "[Compound 5]", "values": [
      {"measurement": "mass shift of the HPV-16 E6 protein upon exposure to compound (covalent bonding at Cys51)", "setting": "[1]", "value": "mass shift"},
      {"measurement": "mass shift of the C51S HPV-16 E6 protein upon exposure to compound", "setting": "[2]", "value": "lack of mass shift"}
    ]},
    {"smiles": "C=CC(=O)N1CCN(c2nc(CCc3ccc(OC)c(OC)c3)nc3sc4c(c23)CCCC4)CC1", "note": "[Compound 6]", "values": [
      {"measurement": "mass shift of the HPV-16 E6 protein upon exposure to compound (covalent bonding at Cys51)", "setting": "[1]", "value": "mass shift"},
      {"measurement": "mass shift of the C51S HPV-16 E6 protein upon exposure to compound", "setting": "[2]", "value": "lack of mass shift"}
    ]},
    {"smiles": "C=CC(=O)N1CCN(C(=O)CN2CCc3sccc3C2c2cccc3ccccc23)CC1", "note": "(stereo not shown) [Compound 7]", "values": [
      {"measurement": "mass shift of the HPV-16 E6 protein upon exposure to compound (covalent bonding at Cys51)", "setting": "[1]", "value": "mass shift"},
      {"measurement": "mass shift of the C51S HPV-16 E6 protein upon exposure to compound", "setting": "[2]", "value": "lack of mass shift"}
    ]},
    {"smiles": "C=CC(=O)N1CCN(c2nc(C3CCCC3)nc3cccc(F)c23)CC1", "note": "[Compound 8]", "values": [
      {"measurement": "mass shift of the HPV-16 E6 protein upon exposure to compound (covalent bonding at Cys51)", "setting": "[1]", "value": "mass shift"},
      {"measurement": "mass shift of the C51S HPV-16 E6 protein upon exposure to compound", "setting": "[2]", "value": "lack of mass shift"}
    ]},
    {"smiles": "C=CC(=O)N1CCN(C(=O)CN2CCc3sccc3C2c2cccc3ncccc23)CC1", "note": "(stereo not shown) [Compound 9]", "values": [
      {"measurement": "mass shift of the HPV-16 E6 protein upon exposure to compound (covalent bonding at Cys51)", "setting": "[1]", "value": "mass shift"},
      {"measurement": "mass shift of the C51S HPV-16 E6 protein upon exposure to compound", "setting": "[2]", "value": "lack of mass shift"}
    ]},
    {"smiles": "C=CC(=O)N1CCN(c2nc(CCc3ccc(OC)c(F)c3)nc3sc4c(c23)CCCC4)CC1", "note": "[Compound 10]", "values": [
      {"measurement": "mass shift of the HPV-16 E6 protein upon exposure to compound (covalent bonding at Cys51)", "setting": "[1]", "value": "mass shift"},
      {"measurement": "mass shift of the C51S HPV-16 E6 protein upon exposure to compound", "setting": "[2]", "value": "lack of mass shift"}
    ]},
    {"smiles": "C=CC(=O)N1CCN(c2nc(CCc3cccc(OC)c3)nc3ccccc23)C(C)C1", "note": "(stereo not shown) [Compound 11]", "values": [
      {"measurement": "mass shift of the HPV-16 E6 protein upon exposure to compound (covalent bonding at Cys51)", "setting": "[1]", "value": "mass shift"},
      {"measurement": "mass shift of the C51S HPV-16 E6 protein upon exposure to compound", "setting": "[2]", "value": "lack of mass shift"}
    ]}
  ]
}
